Drawing on patent US9809623B2, “α4β7 peptide monomer and dimer antagonists” (Protagonist Therapeutics, Inc., priority 2014, dated 2017), this text covers IC50 for ten compounds.

Numbered stars: 1 amine (or outer) side, 2 acyl side, 3 side chain; on linkers, the order of the positions; unused ones are H or OH. Bridge positions count the residues as written; N and C are the ends. Square brackets hold non-standard residues; d marks the D form. Peptide text beside a SMILES is read from it. I, II: the chains in the order shown. Phe(4-COOH) = N[C@@H](Cc1ccc(C(=O)O)cc1)C(=O)O; Phe(4-tBu) = CC(C)(C)c1ccc(C[C@H](N)C(=O)O)cc1; Bip = N[C@@H](Cc1ccc(-c2ccccc2)cc1)C(=O)O; 1Nal = N[C@@H](Cc1cccc2ccccc12)C(=O)O; Diglycolyl = O=C(COCC(=O)[*:2])[*:1]; NMeR = CN[C@@H](CCCNC(=N)N)C(=O)O; β3hE = N[C@@H](CCC(=O)O)CC(=O)O; NMeK = CN[C@@H](CCCCN)C(=O)O; Pen = CC(C)(S)[C@H](N)C(=O)O; dNMeK = CN[C@H](CCCCN)C(=O)O

The IC50 is the concentration needed to halve the response being measured.

Sequence of α4β7 (P13612 34-1032): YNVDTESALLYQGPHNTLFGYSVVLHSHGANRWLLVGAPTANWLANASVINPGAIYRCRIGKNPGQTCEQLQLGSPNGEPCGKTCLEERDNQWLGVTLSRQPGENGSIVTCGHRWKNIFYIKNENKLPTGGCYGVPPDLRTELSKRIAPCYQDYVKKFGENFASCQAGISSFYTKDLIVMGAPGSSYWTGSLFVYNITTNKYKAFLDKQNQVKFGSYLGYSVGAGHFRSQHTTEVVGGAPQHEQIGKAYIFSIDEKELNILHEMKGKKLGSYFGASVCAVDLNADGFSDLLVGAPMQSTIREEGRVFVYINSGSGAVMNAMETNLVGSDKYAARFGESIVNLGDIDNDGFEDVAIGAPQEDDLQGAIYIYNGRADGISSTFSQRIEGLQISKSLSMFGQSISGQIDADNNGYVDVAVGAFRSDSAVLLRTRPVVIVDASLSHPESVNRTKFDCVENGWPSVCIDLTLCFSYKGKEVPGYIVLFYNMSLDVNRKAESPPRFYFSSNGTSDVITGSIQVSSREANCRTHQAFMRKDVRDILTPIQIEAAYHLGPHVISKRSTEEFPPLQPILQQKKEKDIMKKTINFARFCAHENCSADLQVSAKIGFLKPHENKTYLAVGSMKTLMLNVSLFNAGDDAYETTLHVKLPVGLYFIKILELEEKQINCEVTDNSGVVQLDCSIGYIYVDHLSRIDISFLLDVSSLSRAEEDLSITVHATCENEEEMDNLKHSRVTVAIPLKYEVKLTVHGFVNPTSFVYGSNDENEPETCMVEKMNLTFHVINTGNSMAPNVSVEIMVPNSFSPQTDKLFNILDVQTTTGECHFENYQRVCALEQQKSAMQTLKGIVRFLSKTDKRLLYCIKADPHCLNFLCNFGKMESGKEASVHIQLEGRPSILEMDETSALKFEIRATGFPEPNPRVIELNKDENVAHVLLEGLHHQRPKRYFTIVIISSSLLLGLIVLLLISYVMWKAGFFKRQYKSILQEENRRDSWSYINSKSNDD
Sequence of α4β7 (P26010 20-798): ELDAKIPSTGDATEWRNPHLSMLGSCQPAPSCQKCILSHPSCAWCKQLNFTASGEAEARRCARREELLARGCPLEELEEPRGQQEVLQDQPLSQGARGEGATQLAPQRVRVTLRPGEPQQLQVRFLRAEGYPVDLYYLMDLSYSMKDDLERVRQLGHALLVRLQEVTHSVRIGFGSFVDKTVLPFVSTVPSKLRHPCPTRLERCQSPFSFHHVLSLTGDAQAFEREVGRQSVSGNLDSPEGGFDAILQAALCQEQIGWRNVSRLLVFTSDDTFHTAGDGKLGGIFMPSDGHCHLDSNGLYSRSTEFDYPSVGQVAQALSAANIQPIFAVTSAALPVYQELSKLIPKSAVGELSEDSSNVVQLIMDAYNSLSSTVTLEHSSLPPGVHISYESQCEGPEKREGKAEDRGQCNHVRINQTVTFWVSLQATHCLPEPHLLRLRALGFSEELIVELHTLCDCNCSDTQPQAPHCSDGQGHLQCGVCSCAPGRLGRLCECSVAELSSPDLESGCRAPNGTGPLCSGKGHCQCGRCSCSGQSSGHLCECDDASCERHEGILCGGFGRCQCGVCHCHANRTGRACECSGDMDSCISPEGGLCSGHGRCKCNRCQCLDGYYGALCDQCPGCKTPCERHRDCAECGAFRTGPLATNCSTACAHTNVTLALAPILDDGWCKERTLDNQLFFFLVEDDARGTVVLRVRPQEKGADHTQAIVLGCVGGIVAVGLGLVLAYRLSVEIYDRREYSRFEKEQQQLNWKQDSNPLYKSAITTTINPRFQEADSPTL

One assay concerns the target α4β7 (Homo sapiens, UniProt P13612+P26010). The assay is described as follows: α4β7-MAdCAM Cell Adhesion Assay (RPMI 8866 human cells). Conditions: Table 3-B, Potency (α4β7); range classes; read-out: α4β7 cell (Hu) IC50. It is filed as cell-based. Also noted: host or cells: RPMI 8866 human B lymphoblastoid cells. The procedure, abridged: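 Washed RPMI 8866 cells (200,000/well) in DMEM with 0.1% BSA, 10 mM HEPES pH 7, 1 mM MnCl2 adhered to rh MAdCAM-1/Fc-coated wells with serially diluted peptides, 30-45 min at 37 °C. After three washes, bound cells quantified by MTT, A570, cell-free background subtracted for dose response.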
In the case of `CC(=O)N[C@@H]1C(=O)N(C)[C@@H](CCCNC(=N)N)C(=O)N[C@@H](CO)C(=O)N[C@@H](CC(=O)O)C(=O)N[C@@H]([C@@H](C)O)C(=O)N[C@@H](CC(C)C)C(=O)N[C@H](C(=O)N[C@@H](Cc2ccc(C(C)(C)C)cc2)C(=O)N[C@@H](CCC(=O)O)CC(=O)N[C@H](CCCCN)C(N)=O)C(C)(C)SSC1(C)C` [compound 153] (Ac-[Pen][NMeR]SDTL[Pen][Phe(4-tBu)][β3hE][dK]-NH2; disulfide 1-7), the half-inhibitory concentration (IC50) is 10 to 25 nM. Still for that read-out and setting: under `CC(=O)N[C@@H]1C(=O)N(C)[C@@H](CCCNC(=N)N)C(=O)N[C@@H](CO)C(=O)N[C@@H](CC(=O)O)C(=O)N[C@@H]([C@@H](C)O)C(=O)N[C@@H](CC(C)C)C(=O)N[C@H](C(=O)N[C@@H](Cc2cccc3ccccc23)C(=O)N[C@@H](CCC(=O)O)C(=O)N(C)[C@H](CCCCNC(=O)COCC(=O)NCCCC[C@H](C(N)=O)N(C)C(=O)[C@H](CCC(=O)O)NC(=O)[C@H](Cc2cccc3ccccc23)NC(=O)[C@H]2NC(=O)[C@H](CC(C)C)NC(=O)[C@H]([C@@H](C)O)NC(=O)[C@H](CC(=O)O)NC(=O)[C@H](CO)NC(=O)[C@H](CCCNC(=N)N)N(C)C(=O)[C@@H](NC(C)=O)C(C)(C)SSC2(C)C)C(N)=O)C(C)(C)SSC1(C)C` [compound 44] (I: Ac-[Pen][NMeR]SDTL[Pen][1Nal]E[dNMeK]-NH2 / II: Ac-[Pen][NMeR]SDTL[Pen][1Nal]E[dNMeK]-NH2; disulfide I:1-I:7, II:1-II:7; linker I:10-II:10 via Diglycolyl) stands less than 10 nM. On to `CC(=O)N[C@@H]1C(=O)N(C)[C@@H](CCCNC(=N)N)C(=O)N[C@@H](CO)C(=O)N[C@@H](CC(=O)O)C(=O)N[C@@H]([C@@H](C)O)C(=O)N[C@@H](CC(C)C)C(=O)N[C@H](C(=O)N[C@@H](Cc2ccc(-c3ccccc3)cc2)C(=O)N[C@@H](CCC(=O)O)CC(=O)N(C)[C@@H](CCCCNC(=O)COCC(=O)NCCCC[C@@H](C(N)=O)N(C)C(=O)C[C@H](CCC(=O)O)NC(=O)[C@H](Cc2ccc(-c3ccccc3)cc2)NC(=O)[C@H]2NC(=O)[C@H](CC(C)C)NC(=O)[C@H]([C@@H](C)O)NC(=O)[C@H](CC(=O)O)NC(=O)[C@H](CO)NC(=O)[C@H](CCCNC(=N)N)N(C)C(=O)[C@@H](NC(C)=O)C(C)(C)SSC2(C)C)C(N)=O)C(C)(C)SSC1(C)C` [compound 150] (I: Ac-[Pen][NMeR]SDTL[Pen][Bip][β3hE][NMeK]-NH2 / II: Ac-[Pen][NMeR]SDTL[Pen][Bip][β3hE][NMeK]-NH2; disulfide I:1-I:7, II:1-II:7; linker I:10-II:10 via Diglycolyl), for which the IC50 is less than 10 nM. In the case of `CC(=O)N[C@@H]1C(=O)N(C)[C@@H](CCCNC(=N)N)C(=O)N[C@@H](CO)C(=O)N[C@@H](CC(=O)O)C(=O)N[C@@H]([C@@H](C)O)C(=O)N[C@@H](CC(C)C)C(=O)N[C@H](C(=O)N[C@@H](Cc2ccc(C(=O)O)cc2)C(=O)N[C@@H](CCC(=O)O)CC(=O)N(C)[C@@H](CCCCNC(=O)COCC(=O)NCCCC[C@@H](C(N)=O)N(C)C(=O)C[C@H](CCC(=O)O)NC(=O)[C@H](Cc2ccc(C(=O)O)cc2)NC(=O)[C@H]2NC(=O)[C@H](CC(C)C)NC(=O)[C@H]([C@@H](C)O)NC(=O)[C@H](CC(=O)O)NC(=O)[C@H](CO)NC(=O)[C@H](CCCNC(=N)N)N(C)C(=O)[C@@H](NC(C)=O)C(C)(C)SSC2(C)C)C(N)=O)C(C)(C)SSC1(C)C` [compound 148] (I: Ac-[Pen][NMeR]SDTL[Pen][Phe(4-COOH)][β3hE][NMeK]-NH2 / II: Ac-[Pen][NMeR]SDTL[Pen][Phe(4-COOH)][β3hE][NMeK]-NH2; disulfide I:1-I:7, II:1-II:7; linker I:10-II:10 via Diglycolyl), the half-maximal inhibitory concentration (IC50) is less than 10 nM.

Staying with this assay, now noted: Table 4-B; read-out: Cell Adhesion α4β7 IC50.
For the compound `CC(=O)N[C@H]1CSSC(C)(C)[C@@H](C(=O)N[C@@H](CCC(=O)O)C(=O)N[C@H](CCCCNC(=O)COCC(=O)NCCCC[C@@H](NC(=O)[C@H](CCC(=O)O)NC(=O)[C@H]2NC(=O)[C@H](CC(C)C)NC(=O)[C@H]([C@@H](C)O)NC(=O)[C@H](CC(=O)O)NC(=O)[C@H](CO)NC(=O)[C@H](CCCNC(=N)N)N(C)C(=O)[C@@H](NC(C)=O)CSSC2(C)C)C(N)=O)C(N)=O)NC(=O)[C@H](CC(C)C)NC(=O)[C@H]([C@@H](C)O)NC(=O)[C@H](CC(=O)O)NC(=O)[C@H](CO)NC(=O)[C@H](CCCNC(=N)N)N(C)C1=O` [compound 205, (Ac-C-N-Me-R-S-D-T-L-Pen-E-k-NH2)2-DIG] (I: Ac-C[NMeR]SDTL[Pen]E[dK]-NH2 / II: Ac-C[NMeR]SDTL[Pen]E[dK]-NH2; disulfide I:1-I:7, II:1-II:7 (inferred); linker I:9-II:9 via Diglycolyl (inferred)), the concentration for half-maximal inhibition (IC50) amounted to 26 nM. On the same count and under the same terms, in the case of `CC(=O)N[C@@H]1C(=O)N[C@@H](CCCNC(=N)N)C(=O)N[C@@H](CO)C(=O)N[C@@H](CC(=O)O)C(=O)N[C@@H]([C@@H](C)O)C(=O)N[C@@H](CC(C)C)C(=O)N[C@H](C(=O)N[C@H](CCCCNC(=O)COCC(=O)NCCCC[C@@H](NC(=O)[C@@H]2CSSC(C)(C)[C@H](NC(C)=O)C(=O)N[C@@H](CCCNC(=N)N)C(=O)N[C@@H](CO)C(=O)N[C@@H](CC(=O)O)C(=O)N[C@@H]([C@@H](C)O)C(=O)N[C@@H](CC(C)C)C(=O)N2)C(N)=O)C(N)=O)CSSC1(C)C` [compound 207, (Ac-Pen-R-S-D-T-L-C-k-NH2)2-DIG] (I: Ac-[Pen]RSDTLC[dK]-NH2 / II: Ac-[Pen]RSDTLC[dK]-NH2; disulfide I:1-I:7, II:1-II:7 (inferred); linker I:8-II:8 via Diglycolyl (inferred)) it was 49 nM; in that of `CC(=O)N[C@@H]1C(=O)N(C)[C@@H](CCCNC(=N)N)C(=O)N[C@@H](CO)C(=O)N[C@@H](CC(=O)O)C(=O)N[C@@H]([C@@H](C)O)C(=O)N[C@@H](CC(C)C)C(=O)N[C@H](C(=O)N[C@@H](Cc2c[nH]c3ccccc23)C(=O)N[C@H](CCCCN)C(N)=O)C(C)(C)SSC1(C)C` [compound 208, Ac-Pen-N-Me-R-S-D-T-L-Pen-W-k-NH2] (Ac-[Pen][NMeR]SDTL[Pen]W[dK]-NH2; disulfide 1-7), 412 nM. For the compound `CC(=O)N[C@H]1CSSC[C@@H](C(=O)NCC(=O)N[C@@H](CCC(=O)O)C(N)=O)NC(=O)[C@H](CC(C)C)NC(=O)[C@H]([C@@H](C)O)NC(=O)[C@H](CC(=O)O)NC(=O)[C@H](CO)NC(=O)[C@H](CCCNC(=N)N)NC1=O` [compound 194, Ac-C-R-S-D-T-L-C-G-E-NH2] (Ac-CRSDTLCGE-NH2; disulfide 1-7), the IC50 was found to be 590 nM.

With `CC(=O)N[C@H]1CSSC[C@@H](C(=O)NCC(=O)N[C@@H](CCC(=O)O)C(=O)N[C@@H](CCCCN)C(=O)O)NC(=O)[C@H](CC(C)C)NC(=O)[C@H]([C@@H](C)O)NC(=O)[C@H](CC(=O)O)NC(=O)[C@H](CO)NC(=O)[C@H](CCCNC(=N)N)N(C)C1=O` [compound 199, Ac-C-N-Me-R-S-D-T-L-C-G-E-K-OH] (Ac-C[NMeR]SDTLCGEK-OH; disulfide 1-7), the IC50 amounted to 4690 nM. On the same count and under the same terms, under `CC(=O)N[C@H]1CSSC[C@@H](C(N)=O)NC(=O)[C@H](CC(C)C)NC(=O)[C@H]([C@@H](C)O)NC(=O)[C@H](CC(=O)O)NC(=O)[C@H](CO)NC(=O)[C@H](CCCNC(=N)N)NC1=O` [compound 195, Ac-C-R-S-D-T-L-C-NH2] (Ac-CRSDTLC-NH2; disulfide 1-7) stands 1220 nM.
